Among the data in ChEMBL document CHEMBL1687695, “Thermodynamic and Structural Effects of Macrocyclization as a Constraining Method in Protein-Ligand Interactions” (ACS Med Chem Lett, 2010) are Ka values, retold here.

Numbered stars: 1 amine (or outer) side, 2 acyl side, 3 side chain; on linkers, the order of the positions; unused ones are H or OH. Square brackets hold non-standard residues; d marks the D form. Peptide text beside a SMILES is read from it. * marks the point of attachment. pY = N[C@@H](Cc1ccc(OP(=O)(O)O)cc1)C(=O)O; NH(CH2)9CO = O=C(CCCCCCCCCN[*:1])[*:2]; Nonanoyl = CCCCCCCCC(=O)*; Hexanoyl = CCCCCC(=O)*; Ahp = NCCCCCCC(=O)O

The nature of this series: Association constant Ka of the compound. Format: physicochemical.
For the compound `CCCCCC(=O)N[C@@H](Cc1ccc(OP(=O)(O)O)cc1)C(=O)N[C@H](C(=O)N[C@@H](CC(N)=O)C(=O)NCC(=O)NC)C(C)C` (Hexanoyl-[pY]VNG-NHMe), the Ka was 4.1 ×10⁵ /M.

`CCCCCC(=O)N[C@@H](Cc1ccc(OP(=O)(O)O)cc1)C(=O)N[C@H](C(=O)N[C@@H](CC(N)=O)C(=O)N[C@H](C(=O)NC)C(C)C)C(C)C` (Hexanoyl-[pY]VNV-NHMe): the Ka is 2.3 ×10⁶ /M. `CCCCCC(=O)N[C@@H](Cc1ccc(OP(=O)(O)O)cc1)C(=O)N[C@H](C(=O)N[C@@H](CC(N)=O)C(=O)N[C@H](C(=O)N1CCC[C@H]1C(=O)NC)C(C)C)C(C)C` (Hexanoyl-[pY]VNVP-NHMe): the Ka amounted to 6.5 ×10⁶ /M. `CCCCCCCCC(=O)N[C@@H](Cc1ccc(OP(=O)(O)O)cc1)C(=O)N[C@H](C(=O)N[C@@H](CC(N)=O)C(=O)NCC(=O)NC)C(C)C` (Nonanoyl-[pY]VNG-NHMe) returned a Ka of 5.7 ×10⁵ /M. The same measure for `CC(C)[C@@H]1NC(=O)[C@H](Cc2ccc(OP(=O)(O)O)cc2)NC(=O)CCCCCCCCCNC(=O)CNC(=O)[C@H](CC(N)=O)NC1=O` (cyclo(G[NH(CH2)9CO][pY]VN)): 8.5 ×10⁵ /M.

As for `CC(C)[C@@H]1NC(=O)[C@H](Cc2ccc(OP(=O)(O)O)cc2)NC(=O)CCCCCCNC(=O)CNC(=O)[C@H](CC(N)=O)NC1=O` (cyclo([Ahp][pY]VNG)), the Ka was 4.7 ×10⁴ /M. As for `CC(C)[C@@H]1NC(=O)[C@H](CC(N)=O)NC(=O)[C@H](C(C)C)NC(=O)[C@H](Cc2ccc(OP(=O)(O)O)cc2)NC(=O)CCCCCCNC1=O` (cyclo([Ahp][pY]VNV)), the figure is 2.3 ×10⁶ /M; as for `CC(C)[C@@H]1NC(=O)[C@H](Cc2ccc(OP(=O)(O)O)cc2)NC(=O)CCCCCCNC(=O)[C@@H]2CCCN2C(=O)[C@H](C(C)C)NC(=O)[C@H](CC(N)=O)NC1=O` (cyclo([Ahp][pY]VNVP)), 1 ×10⁷ /M.
